In PubChem BioAssay AID720589 (Broad Institute, 2013):
Calls of active or inactive are those of the source.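 The calls were made as follows: active = fitted curve drops below -35% activity at a concentration within twice the top valid tested dose; inconclusive = no clear call, values can overlap the other calls; inactive = signal rising instead of falling, among other cases.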

assay: ATP-based viability loss in HepG2 cells – cell-based, CellTiter-Glo luminescence, cherry-pick, set 3, cytotoxicity control, dose response (AID 720589); settings: HepG2 viability, ATP luminescence (CellTiter-Glo), 72 h; at 0.011 µM; stronger effect = lower value; 0% = untreated, negative = ATP loss

SMILES | max activity
COc1ccccc1N(/N=C1\Sc2ccccc2C1=O)C(C)=O | -37.6% (inactive)
CCOc1ccc(-c2cc(CCCC(=O)N3CCN(c4ccc(OC)cc4)CC3)no2)cc1 | -25.4% (inactive)
C=CC[n+]1c(-c2ccc(C)cc2)csc1Nc1ccc(NC(C)=O)cc1 | 20.8% (inactive)
C[C@@H]1CN([C@@H](C)CO)S(=O)(=O)c2ccc(C#Cc3ccncc3)cc2O[C@H]1CN(C)S(=O)(=O)c1ccccc1 | -29.6% (inactive)
C/C(=N\N(c1ccccc1)c1ccccc1)c1ccco1 | 17.6% (inactive)
CCn1c(/C=N/NC(=O)c2ccc(OC)cc2)nc2ccccc21 | -35.2% (inactive)
COc1ccccc1-c1cn(CC[C@H]2CC[C@@H](NC(=O)C3CCCC3)[C@@H](CO)O2)nn1 | 18.9% (inactive)
Nc1ccc(Oc2cccc(Oc3ccc(N)cc3)c2)cc1 | 11.2% (inactive)
C[C@@H]1CN([C@@H](C)CO)S(=O)(=O)c2ccc(C#Cc3ccncc3)cc2O[C@H]1CN(C)C(=O)C1CCOCC1 | -28.4% (inactive)
Cc1cccc(N2CCN(C3C(=O)Nc4ccccc4-n4nnnc43)CC2)c1C (stereo not drawn) | 12.3% (inactive)
Cc1cccc(/C=N/Nc2ccc3ccccc3n2)c1 | 29% (inactive)

same assay, conditions: HepG2 viability, ATP luminescence (CellTiter-Glo), 72 h; at 0.035 µM; stronger effect = lower value

SMILES | max activity
O=C1NC2C(=CC(O)C(O)C2O)c2cc3c(cc21)OCO3 (stereo not drawn) | -17.9% (inactive)

same assay, conditions: HepG2 viability, ATP luminescence (CellTiter-Glo), 72 h; at 0.035 µM; stronger effect = lower value; 0% = untreated, negative = ATP loss

SMILES | max activity
COC(=O)C[C@@H]1CC[C@@H]2[C@H](COc3ccc(NC(=O)c4ccc(F)c(F)c4)cc3C(=O)N2C)O1 | -21% (inactive)
Cc1c(Cl)cnc(NC(=O)COC(=O)c2ccc3ncsc3c2)c1Cl | -18.7% (inactive)
COCCCNc1ccn2nc(-c3ccccc3)cc2n1 | -48% (inactive)
COc1ccc(CCCNC(=O)C2Cc3c(-c4ccc5c(c4)OCO5)ccnc3O2)cc1 (stereo not drawn) | -34% (inactive)

same assay, conditions: HepG2 viability, ATP luminescence (CellTiter-Glo), 72 h; at 0.1 µM; stronger effect = lower value; 0% = untreated, negative = ATP loss

SMILES | max activity
Cc1occc1-c1n[nH]c(=S)n1C | -6.52% (inactive)
O=C(O)c1ccc(N/N=C/c2cc(Br)cs2)cc1 | -24.3% (inactive)
Cc1cc(C)cc(OCC(=O)OCC(=O)Nc2cc(S(=O)(=O)N3CCOCC3)ccc2C)c1 | -15.3% (inactive)
CCc1ccc(N2C=C(C(=O)OC)C(c3ccc(OC)cc3)C(C#N)=C2N)cc1 (stereo not drawn) | -15.5% (inactive)
COC(=O)C[C@@H]1CC[C@@H]2[C@@H](COc3ccc(NC(=O)Nc4cccc(C#N)c4)cc3C(=O)N2C)O1 | -8.7% (inactive)
CN(C)C(=O)c1cccc(-c2ccc(C3[C@@H]4CN(Cc5nccs5)C[C@H]3N4)cc2)c1 (stereo partly drawn) | -30.3% (inactive)

same assay, conditions: HepG2 viability, ATP luminescence (CellTiter-Glo), 72 h; at 0.3 µM; stronger effect = lower value; 0% = untreated, negative = ATP loss

SMILES | max activity
CC(C)CN(C(=O)CN1CCOCC1)c1c(N)n(CC(C)C)c(=O)[nH]c1=O | -39% (inactive)
Cc1ccccc1NC(=O)C(=Cc1ccc(C(=O)O)cc1)C(=O)Nc1ccccc1C | -13.1% (inactive)
CCOc1ccccc1CNC(=O)c1ccc(Sc2ccc(Cl)cc2)c(NC(C)=O)c1 | -29.5% (inactive)
C[C@@H]1CCCCO[C@@H](CN(C)C(=O)Cc2ccccc2)[C@@H](C)CN([C@@H](C)CO)C(=O)c2cc(NS(=O)(=O)c3ccc(F)cc3)ccc2O1 | -23.7% (inactive)
COC(=O)C[C@H]1CC[C@@H]2[C@H](COc3ccc(NC(=O)Nc4cccc(Cl)c4)cc3C(=O)N2C)O1 | -38.3% (inactive)
CCCc1cc(=O)oc2c3c(c4c(c12)OC(C)(C)C=C4)OC(C)C(C)C3O (stereo not drawn) | -25.9% (inactive)
COc1ccc2nc(-c3ccc(F)cc3)sc2c1 | -47.1% (inactive)
COc1cc(-c2cnc3c(NC=O)cc(-c4cccc(NC(C)=O)c4)cn23)cc(OC)c1OC | -32.8% (inactive)
COc1cc(/C=C/C(=O)CC(=O)/C=C/c2ccc(O)c(OC)c2)ccc1O | -27.1% (inactive)
COC(=O)C[C@@H]1CC[C@@H]2[C@H](COc3ccc(NC(=O)c4cccc(F)c4)cc3C(=O)N2C)O1 | -26.8% (inactive)

same assay, conditions: HepG2 viability, ATP luminescence (CellTiter-Glo), 72 h; at 0.8 µM; stronger effect = lower value; 0% = untreated, negative = ATP loss

SMILES | max activity
Cc1ccc(S(=O)(=O)N(C)C[C@@H]2Oc3ccc(NC(=O)CCCCCC(=O)Nc4ccccc4N)cc3CC(=O)N([C@@H](C)CO)C[C@@H]2C)cc1 | -38.7% (inactive)

same assay, conditions: HepG2 viability, ATP luminescence (CellTiter-Glo), 72 h; at 0.9 µM; stronger effect = lower value; 0% = untreated, negative = ATP loss

SMILES | max activity
COc1cc(/C=N\Nc2nc(-c3ccc(C)cc3)c(NC(C)=O)s2)ccc1O | -20.6% (inactive)
CC(C)(C)c1ccc(Oc2ccc(N)cn2)cc1 | 14% (inactive)
COc1ccc(OC)c(-c2nnc3n2N=C(c2ccc(OC)c(OC4CCCC4)c2)CS3)c1 | -30% (inactive)
C[C@@H]1CN([C@@H](C)CO)C(=O)c2cccc(NC(=O)Nc3ccccc3)c2O[C@@H]1CN(C)Cc1ccc(-c2ccccc2)cc1 | -17% (inactive)
COC(=O)C[C@@H]1CC[C@@H]2[C@H](COc3ccc(NC(=O)c4ccc(F)cc4)cc3C(=O)N2C)O1 | -31.5% (inactive)
COC(=O)C[C@@H]1CC[C@@H]2[C@H](COc3ccc(NC(=O)Nc4cccc(Cl)c4)cc3C(=O)N2C)O1 | -25.8% (inactive)

same assay, conditions: HepG2 viability, ATP luminescence (CellTiter-Glo), 72 h; at 2.85 µM; stronger effect = lower value

SMILES | max activity
O=C(Nc1ccc(OC(=O)N2CCCCC2)cc1)N1CCOCC1 | -13.3% (inactive)

same assay, conditions: HepG2 viability, ATP luminescence (CellTiter-Glo), 72 h; at 2.85 µM; stronger effect = lower value; 0% = untreated, negative = ATP loss

SMILES | max activity
CCCCCCN(C(=O)CCCCCN1C(=O)NC(c2ccc(Cl)cc2)C(C(=O)OCc2ccccc2)=C1C)C(C(=O)NCCCC)c1ccc(OCC(=O)OC)c(C(=O)OC)c1 (stereo not drawn) | -30.9% (inactive)
Cc1cc(C(=O)Nc2ccc3c(c2)C(=O)N(C)[C@@H]2CC[C@H](CC(=O)N[C@H](C)c4ccccc4)O[C@H]2CO3)no1 | -28.2% (inactive)
COc1cc(-c2coc3c(C(=O)NCc4ccc(C(F)(F)F)cc4)cccc23)ccc1O | -25.6% (inactive)
CCOC(=O)Cc1csc(NC(=S)NC(=O)c2ccc(C)cc2)n1 | 11.3% (inactive)
COc1ccc(Nc2oc(COc3ccccc3OC)nc2C#N)cc1 | -51% (inactive)
O=C(Sc1cccc2cccnc12)c1ccccc1Br | -31.3% (inactive)
N#C[C@H]1[C@H](c2ccc(C#Cc3ccccc3F)cc2)[C@@H](CO)N1C(=O)C1CCOCC1 | -21.8% (inactive)
COC(=O)C[C@@H]1CC[C@@H]2[C@@H](COc3ccc(NC(=O)Nc4cccc(F)c4)cc3C(=O)N2C)O1 | -34.7% (inactive)
Cc1cc(C)cc(C(=O)NC(=S)Nc2ccc(Cc3ccncc3)cc2)c1 | -39.1% (inactive)
COC(=O)C[C@@H]1CC[C@@H]2[C@@H](COc3ccc(NC(=O)Cc4cccs4)cc3C(=O)N2C)O1 | -25% (inactive)

same assay, conditions: HepG2 viability, ATP luminescence (CellTiter-Glo), 72 h; at 3 µM; stronger effect = lower value; 0% = untreated, negative = ATP loss

SMILES | max activity
CCNC(=O)c1cc2c(c(-c3cccc(-c4cccc(OC)c4)c3)n1)[C@H](CCO)N([S@@](=O)C(C)(C)C)C2 | -28.9% (inactive)

same assay, conditions: HepG2 viability, ATP luminescence (CellTiter-Glo), 72 h; at 8 µM; stronger effect = lower value; 0% = untreated, negative = ATP loss

SMILES | max activity
O=C(C[C@@H]1C[C@H]2c3cc(NS(=O)(=O)c4ccc(F)cc4)ccc3O[C@H]2[C@H](CO)O1)NCc1ccc(-c2ccccc2)cc1 | -26.1% (inactive)
COc1ccccc1CNC(=O)C[C@@H]1CC[C@H]2[C@@H](COC[C@H](O)CN2C(=O)Nc2ccc(C(F)(F)F)cc2)O1 | -30.7% (inactive)
O=C(COC(=O)c1ccc[nH]c1=O)Nc1ccc(N2CCCCC2)cc1 | -25.3% (inactive)
COC(=O)c1cccc(NC(=O)NC(=O)c2ccc(Cl)cc2)c1 | -15.3% (inactive)
COc1ccc(OC)c(/C=C/c2ccnc3ccccc23)c1 | -41.5% (inactive)
Nc1nc2cc3c(cc2cc1C(=O)NCCc1c[nH]c2ccccc12)OCO3 | -32.5% (inactive)

same assay, conditions: HepG2 viability, ATP luminescence (CellTiter-Glo), 72 h; at 23.5 µM; stronger effect = lower value; 0% = untreated, negative = ATP loss

SMILES | max activity
C[C@H](CO)N1C[C@H](C)[C@H](CN(C)Cc2ccccc2)Oc2ccc(NC(=O)CCCCCC(=O)Nc3ccccc3N)cc2CC1=O | -23.9% (inactive)

same assay, conditions: HepG2 viability, ATP luminescence (CellTiter-Glo), 72 h; at 26 µM; stronger effect = lower value; 0% = untreated, negative = ATP loss

SMILES | max activity
Cc1cc(C(=O)CN2C(=O)c3ccccc3S2(=O)=O)c(C)n1C(C)C | 17.7% (inactive)
O=C(O)c1cccc(N/N=C/c2cccs2)c1 | -13.2% (inactive)
O=C(Nc1nc(-c2ccc(F)c(F)c2)cs1)c1ccc(OCC2CCCO2)cc1 (stereo not drawn) | -28.7% (inactive)
CCCn1nnc(NC(=S)NC(=O)C(C)(C)C)n1 | -35.2% (inactive)
COc1ccc(C=C2CCc3ccccc3C2=O)cc1 | -23.4% (inactive)
Cc1ccc(NC(=O)CCN2CCCCC2)cc1 | 20.8% (inactive)
CC(=O)Oc1ccc(-c2ccc(C(=O)Nc3cccc(S(=O)(=O)N4CCOCC4)c3)cc2)cc1 | -21.6% (inactive)
Cc1ccc(/C=N/Nc2ccc3ccccc3n2)o1 | -46.4% (inactive)
C[C@@H]1CN([C@H](C)CO)C(=O)CCCn2nncc2CO[C@H]1CN(C)Cc1ccc(Oc2ccccc2)cc1 | -33.6% (inactive)
CCOc1ccc(OCc2ccc(C(=O)NN=Cc3ccc[nH]3)cc2)cc1 | -34% (inactive)
CN1C(=O)c2cc(NC(=O)c3ccc(Cl)cc3)ccc2OC[C@@H]2O[C@@H](CC(=O)NCc3cccc(F)c3)CC[C@H]21 | -22.6% (inactive)
COc1cc2oc3cc(C#Cc4ccc(N)cc4)ccc3c(=O)c2cc1OC | -39.4% (inactive)
O=C(CCCN1C(=O)/C(=C/c2ccccc2Cl)SC1=S)NNC(=O)c1ccc(Cl)cc1 | 22.9% (inactive)
CC(C)(C)c1ccc(Cn2c(=O)cnc3ccccc32)cc1 | -40.9% (inactive)
O=c1cc(-c2ccccc2)oc2ccc3ccccc3c12 | -21.9% (inactive)
